Data from patent US6287840A (Axys Pharmaceuticals, Inc., priority 1999, dated 2001).

Experiments:
T. cruzi = T. cruzi infected irradiated J774 cells; type: cell-based; parameters: dose or concentration left out as unconfirmed; settings: thereafter without inhibitor; compounds listed in decreasing order of effectiveness
Method: Irradiated J774 cells were infected with T. cruzi and simultaneously treated with […] of peptidyl vinyl derivatives for 5 days; thereafter without inhibitor. The following compounds were effective in decreasing order: Mu-Phe-ArgVSPh, Boc-Tyr(I2)-HphVSPh, Mu-Phe-VaIVSPh, Boc-Tic-HphVSPh, Mu-Phe-Ser(OBzl)VSPh, Mu-Leu-HphVSPh, Mu-Tyr(I2)-HphVSPh, Mu-Phe-LysVSPh, Mu-Tic-HphVSPh.

cruzain, from T. cruzi = cruzain, from T. cruzi (Trypanosoma cruzi, UniProt P25779); test: Inhibition of cruzain, as for cathepsin L; type: biochemical; settings: values marked *
Method in brief: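 Run as for cathepsin L with 1 nM cruzain in 50 mM phosphate pH […], 2.5 mM DTT, 2.5 mM EDTA, 5 μM Z-Phe-Arg-AMC, at 25 °C, inhibitors 30-0.001 μM; fluorescence (ex 380/em 460 nm) followed continuously. kobs fitted from progress curves and kobs/[I] reported; selected compounds gave kirr, KI, kirr/KI, with KI corrected by (1+[S]/Km).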

[1] = biological target: T1, Cathepsin B from human placenta (Homo sapiens, UniProt P07858); test: Inhibition of cathepsin B, Z-Arg-Arg-AMC fluorescence progress curves; type: biochemical; settings: 25° C., pH 6.2
T1 construct: Cathepsin B from human placenta, obtained from Sigma; purchased Sigma; host or cells: human placenta (tissue)
Method in brief: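 Human placental enzyme (~10 nM) in 50 mM phosphate pH 6.2 with 2.5 mM DTT and 2.5 mM EDTA, 50 μM Z-Arg-Arg-AMC, inhibitors 30-0.001 μM, 25° C. AMC fluorescence (ex 380/em 460 nm) progress curves fitted for kobs; kobs/[I] reported, with kirr, KI and kirr/KI substrate-corrected for selected compounds.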

calpain = test: Inhibition (inactivation) of calpain, Suc-Leu-Tyr-AMC; type: biochemical; settings: values marked * (or %); pH 7.5, 5 mM CaCl2, 25° C.
Method: The inhibitors were tested against calpain at 1 or 2% as for the other enzymes. The reaction conditions were 50 mM Tris, pH 7.5, 5 mM CaCl2, 2.5 mM DTT, assayed at 25° C. The substrate was 100 μM Suc-Leu-Tyr-AMC.

P. carinii = test: Growth of P. carinii in vitro; type: cell-based; settings: 10 mM each
Method: Mu-Leu-HphVSPh and Mu-Phe-LysVSPh.HBr were evaluated for their effects on the growth of P. carinii in vitro, according to the procedure of M. S. Bartlett et al. [Antimicrotubule Benzimidazoles Inhibit In Vitro Growth of P. carinii, M. S. Bartlett, T. D. Edlind, M. M. Durkin, M. M. Shaw, S. F. Queener, and J. W. Smith, (1992) Antimicrobial Agents and Chemotherapy, 36, 779-782; Antimicrobial susceptibility of P. carinii in culture, M. S. Bartlett, R. Eichholtz, and J. W. Smith (1985) Diagn. Microbiol. Infect. Dis.; 3, 381-387. Mu-Leu-HphVSPh and Mu-Phe-LysVSPh.HBr (10 mM each) inhibited the growth of P. carinii 64% and 50% respectively.

[2] = biological target: T2, Cathepsin L from rat liver (Rattus norvegicus, UniProt P07154); test: Inhibition of cathepsin L, Z-Phe-Arg-AMC fluorescence progress curves; type: biochemical
T2 construct: Cathepsin L from rat liver; from tissue; host or cells: rat liver
Method in brief: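 Progress curves of AMC release (380/460 nm) over at least 3 inactivation half-times were fitted to kobs, reported as kobs/[I] or, via 1/[I] vs 1/kobs, kirr, KI (substrate-corrected) and kirr/KI.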

[3] = Stability of selected inhibitors toward glutathione (Ellmans reagent); type: physicochemical; settings: inhibitor 5 mM, GSH 0.3 mM, pH=6.2, 20° C.
Method: The inhibitors (5 mM) were incubated with glutathione (GSH) (0.3 mM) in phosphate buffer (50 mM) at pH=6.2 containing 15% DMF at 20° C. Periodically, 50 μL samples were added to 1 mL of buffer and treated with 10 μL of 30 mM Ellmans reagent and the absorbance measured at 412 nm.

Cloned cathepsin S = biological target: T3, Cloned cathepsin S (Homo sapiens, UniProt P25774); test: Inhibition of cathepsin S, Z-Val-Val-Arg-AMC fluorescence progress curves; type: biochemical; settings: values marked *; 25° C., pH 6.5
T3 construct: made in house
Method in brief: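 Progress curves at 25 °C in 100 mM phosphate pH 6.5, 2.5 mM DTT, 2.5 mM EDTA, 0.01% Triton, enzyme <1 nM, 10 μM substrate, inhibitors 30-0.001 μM; AMC fluorescence ex 380/em 460 nm. kobs from nonlinear fits gave kobs/[I]; selected compounds yielded kirr, KI (substrate-corrected), kirr/KI.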

[4] = tested on: human malarial parasite Plasmodium falciparum; test: In vitro protease activity of malarial parasite, substrate Z-Phe-Arg-AMC; type: biochemical; settings: cells printed in nM; read-out: P. falciparum IC50 (human)
Excerpt: (§1) The following table summarizes the comparative IC50 values for selected cysteine protease inhibitors against the human malarial parasite Plasmodium falciparum and the mouse malarial parasite Plasmodium vinckei. The substrate used to measure in vitro protease activity was Z-Phe-Arg-AMC.

[5] = tested on: mouse malarial parasite Plasmodium vinckei; test: as above; type: biochemical; settings: cells printed in nM; read-out: P. vinckei IC50 (murine)
Excerpt: as §1

T2 sequence (P07154 114-288 limits assumed): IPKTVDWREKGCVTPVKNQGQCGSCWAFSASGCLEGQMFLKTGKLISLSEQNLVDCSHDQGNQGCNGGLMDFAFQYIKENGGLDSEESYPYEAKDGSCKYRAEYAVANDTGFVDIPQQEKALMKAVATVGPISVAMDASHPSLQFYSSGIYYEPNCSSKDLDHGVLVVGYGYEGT
T2 sequence (P07154 291-334 limits assumed): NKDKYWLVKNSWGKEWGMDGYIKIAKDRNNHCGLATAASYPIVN
Sequence of cruzain, from T. cruzi (P25779 123-337 limits assumed): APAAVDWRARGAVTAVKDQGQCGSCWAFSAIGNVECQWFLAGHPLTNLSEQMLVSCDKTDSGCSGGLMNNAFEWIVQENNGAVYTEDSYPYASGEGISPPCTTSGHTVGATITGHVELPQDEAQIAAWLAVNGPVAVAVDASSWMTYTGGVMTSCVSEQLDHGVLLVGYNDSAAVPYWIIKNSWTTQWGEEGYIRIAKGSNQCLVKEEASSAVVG
T3 sequence (P25774 115-331): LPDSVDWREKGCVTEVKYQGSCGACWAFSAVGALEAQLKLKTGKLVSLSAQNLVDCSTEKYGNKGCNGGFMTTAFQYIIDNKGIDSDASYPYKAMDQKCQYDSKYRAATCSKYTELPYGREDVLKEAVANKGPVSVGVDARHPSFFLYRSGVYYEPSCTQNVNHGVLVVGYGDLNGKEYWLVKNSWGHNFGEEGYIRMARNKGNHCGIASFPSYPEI

Structure (SMILES): Br.NCCCC[C@@H](/C=C/S(=O)(=O)c1ccccc1)NC(=O)[C@H](Cc1ccccc1)NC(=O)N1CCOCC1 [Mu-Phe-LysVSPh.HBr, (G)-(E)-7-amino-3-(4-morpholinecarbonylphenylalanyl)amino-1-phenylsulfonyl-1-heptene hydrobromide]
- effectiveness against T. cruzi in J774 cells (T. cruzi): effective
- kobs /[I]* (approximate second-order inactivation constant) (cruzain, from T. cruzi): 149,000 M^-1 sec^-1
- kobs /[I]* (approximate second-order inactivation constant) ([1]; values marked *): 11,300 M^-1 sec^-1
- k/KI (kirr/KI) ([1]; values without asterisk): 11,700 M^-1 sec^-1
- kobs /[I]* (calpain): < 50 M⁻¹ s⁻¹
- inhibition of the growth of P. carinii (P. carinii): 50%
- kirr [2]: 0.16 s⁻¹
- Ki ([2]; corrected for substrate): 1400 nM
- kobs /[I]* (approximate second-order inactivation constant) ([2]; values marked *, 25° C., pH 6.2): 220,000 M^-1 sec^-1
- k/KI (kirr/KI) ([2]; values without asterisk, 25° C., pH 6.2): 110,000 M^-1 sec^-1
- second order rate constant for the loss of GSH [3]: 0.00055 M⁻¹ s⁻¹
- kobs /[I]* (approximate second-order inactivation constant) (Cloned cathepsin S): 10,700,000 M^-1 sec^-1
- IC50 [4]: 100 nM
- IC50 [5]: 60 nM
